US20090264477A1, “BETA ADRENERGIC RECEPTOR AGONISTS FOR TREATMENT OF PAIN AND/OR INFLAMMATION” (Warsaw Orthopedic, Inc., An Indiana Corporation, priority 2008, published 2009)

Columns and labels:
[1] = system: rat Chronic Constriction Injury model (Bennett Model); test: Hargreaves test (thermal paw withdrawal latency, thermal hyperalgesia) in rat Chronic Constriction Injury model; format: in vivo, Wistar rats
Source text: The inventors evaluated the efficacy of a various beta-2-adrenergic receptor agonists and compared them to clonidine (an alpha-2-agonist) and saline in the rat Chronic Constriction Injury model (i.e., Bennett Model) using Wistar rats. The purpose: To determine whether the beta-2-adrenergic receptor agonists can improve pain associated behavioral responses in a rat model of neuropathic pain.
The doses given would mimic those achievable by a continuous release drug depot containing a biodegradable polymer (7 rats in each group).

[2] = system: rat Chronic Constriction Injury model (Bennett Model); test: von Frey test (mechanical threshold, mechanical allodynia) in rat Chronic Constriction Injury model; format: in vivo, Wistar rats
Method: The inventors evaluated the efficacy of a various beta-2-adrenergic receptor agonists and compared them to clonidine (an alpha-2-agonist) and saline in the rat Chronic Constriction Injury model (i.e., Bennett Model) using Wistar rats.
Hargreaves tests were conducted on days 7 and 14; […], where some drug compositions having predominantly beta-2 agonist activity were compared to clonidine a drug composition that has predominantly alpha-2 agonist activity and saline. The doses given would mimic those achievable by a continuous release drug depot containing a biodegradable polymer (7 rats in each group). […]
FIG. 4 is a graphic representation of the mechanical threshold as a percentage from baseline in rats given clonidine 0.02 mg/kg, ritodrine 5 mg/kg, ritodrine 2 mg/kg, salbutamol 10 mg/kg, salbutamol 5 mg/kg, terbutaline 0.5 mg/kg, terbutaline 0.1 mg/kg, and saline subcutaneously every day for 15 days. […]

[3] = 5 mg/kg subcutaneous every day for 15 days, day 14

CC(C)(C)NCC(O)c1ccc(O)c(CO)c1 (centres unmarked) [salbutamol]
pain behavioral response for thermal hyperalgesia (thermal paw withdrawal latency, percentage of baseline) compared with saline group ([1]; 5 mg/kg subcutaneous every day for 15 days, days 7 and 14): statistically significant result of decreasing pain responses
pain behavioral response for thermal hyperalgesia (thermal paw withdrawal latency, percentage of baseline) compared with saline group ([1]; 10 mg/kg subcutaneous every day for 15 days, days 7 and 14): statistically significant result of decreasing pain responses
pain behavioral response for mechanical allodynia (mechanical threshold, percentage of baseline) compared with saline group [2, 3]: statistically significant result of decreasing pain responses
pain behavioral response for mechanical allodynia (mechanical threshold, percentage of baseline) compared with saline group ([2]; 10 mg/kg subcutaneous every day for 15 days, days 8 and 15): statistically significant result of decreasing pain responses

Clc1cccc(Cl)c1N=C1NCCN1 [clonidine, 2,6-dichloro-N-2-imidazolidinyldenebenzenamine]
pain behavioral response for thermal hyperalgesia (thermal paw withdrawal latency, percentage of baseline) compared with saline group ([1]; 0.02 mg/kg subcutaneous every day for 15 days, day 14): statistically significant result of decreasing pain responses

CC(NCCc1ccc(O)cc1)C(O)c1ccc(O)cc1 (centres unmarked) [ritodrine]
pain behavioral response for thermal hyperalgesia (thermal paw withdrawal latency, percentage of baseline) compared with saline group ([1]; 2 mg/kg subcutaneous every day for 15 days, day 7): statistically significant result of decreasing pain responses
pain behavioral response for thermal hyperalgesia (thermal paw withdrawal latency, percentage of baseline) compared with saline group [1, 3]: statistically significant result of decreasing pain responses
pain behavioral response for mechanical allodynia (mechanical threshold, percentage of baseline) compared with saline group [2, 3]: statistically significant result of decreasing pain responses

CC(C)(C)NCC(O)c1cc(O)cc(O)c1 (centres unmarked) [terbutaline]
pain behavioral response for thermal hyperalgesia (thermal paw withdrawal latency, percentage of baseline) compared with saline group ([1]; 0.1 mg/kg subcutaneous every day for 15 days, days 7 and 14): statistically significant result of decreasing pain responses
pain behavioral response for thermal hyperalgesia (thermal paw withdrawal latency, percentage of baseline) compared with saline group ([1]; 0.5 mg/kg subcutaneous every day for 15 days, days 7 and 14): statistically significant result of decreasing pain responses
pain behavioral response for mechanical allodynia (mechanical threshold, percentage of baseline) compared with saline group ([2]; 0.5 mg/kg subcutaneous every day for 15 days, day 14): statistically significant result of decreasing pain responses
